Laboratory results taken from PubChem BioAssay AID1963978 (Molecular Pharmacology Branch, DTP, NCI, 2024).

System: 616215-338-R-J1-PDC spheroids with HUVEC/MSC, viability
Experiment: Anticancer human tumor 616215-338-R-J1-PDC patient-derived colon adenocarcinoma cell line growth inhibition [PI3K]
Conditions: for IC50: curve of first compound; for viability, T/C: stronger effect = lower value
Source text: Combinatorial screen of targeted agents with the PI3K inhibitors inavolisib, alpelisib, duvelisib, and copanlisib in multi-cell type tumor spheroids
A high-throughput screen of multi-cell type tumor spheroids was designed to identify active combinations of targeted small molecules and PI3K pathway inhibitors. Complex spheroids include a stromal component modeled by human endothelial cells (HUVEC) and fibroblasts modeled by human mesenchymal stem cells (MSCs). The concentration ranges selected for each drug and investigational agent were based upon clinically achievable concentrations if the clinical Cmax of the agent was known.
Compounds. The drugs and investigational agents: inavolisib (NSC800729), alpelisib (NSC765974), duvelisib (NSC772469), copanlisib (NSC816437), ipatasertib (NSC767898), afuresertib (NSC778305), talazoparib (NSC767125), sapanisertib (NSC764658), selumetinib (NSC741078), tovorafenib (DAY101, NSC766906), vemurafenib (NSC761431), ravoxertinib (NSC781343), sotorasib (NSC818433), MRTX1133 (NSC 836407), abemaciclib (NSC 768073), palbociclib (NSC758247), venetoclax (NSC 766270), SY5609 (NSC837396), enzalutamide (NSC755605), and darolutamide (NSC825331), were obtained from the National Cancer Institute (NCI) Developmental Therapeutics Program Chemical Repository. The FDA-approved anticancer drug set is available from the NCI Developmental Therapeutics Program. […] The stock solutions were prepared in dimethyl sulfoxide (DMSO, Sigma-Aldrich, St. Louis, MO, cat. D2650) at 800-fold the tested concentration and stored at -70 degrees C prior to their use. All drugs and investigational agents were tested over a range starting from a high concentration at or near the clinical Cmax and decreasing in half-log increments. If the clinical Cmax for an agent had not been determined, the highest concentration tested was 10 microM.
Cell Culture. All cells were maintained in an incubator at 37 degrees C and 5% CO2 with 95% humidity. The PDC lines were cultured according to standard operating procedures established by the NCI PDMR (https://pdmr.cancer.gov/sops/default.htm). All PDCs were thawed and cultured in Matrigel-coated flasks prepared with a working solution of 1X Ham's F-12 nutrient mix, without supplementation (Invitrogen, Waltham, MA, cat. 11765054), 100 U/mL penicillin-streptomycin (Invitrogen, cat. 15140122), and 2.5% Matrigel (Corning Inc., Corning, NY, cat. 354248) for the first three passages. The 354836-022-R-J1-PDC, 475296-252-R-J1-PDC, and 997726-040-R-J2-PDC lines were cultured in 6A media, which includes advanced DMEM/F-12 (Thermo Fisher Scientific, cat. 12634028), 10 mM HEPES (Thermo Fisher Scientific, cat. 15630080), 1X GlutaMAX supplement (Thermo Fisher Scientific, cat. 35050061), 0.1 mg/mL primocin (InvivoGen, San Diego, CA, cat. ant-pm-2), 10% defined fetal bovine serum, heat inactivated (HyClone Laboratories Inc., Logan, UT, cat. SH30070.03HI), 50% L-WRN conditioned media (ATCC, cat. CRL-3276), 1.25 mM N-Acetyl-L-cysteine (Sigma-Aldrich, cat. A9165), 10 mM nicotinamide (Sigma-Aldrich, cat. N0636), 1X B-27 supplement (Thermo Fisher Scientific, cat. 17504044), 1X N-2 supplement (Thermo Fisher Scientific, cat. 17502048), and 10 microM Y-27632 dihydrochloride (Tocris Bioscience, Bristol, United Kingdom, cat. 1254). The 624824-186-R-J2-PDC line was cultured in 6C/Colon 1B media, which includes all 6A media components plus 50 ng/mL human EGF recombinant protein (Thermo Fisher Scientific, cat. PHG0311). […]

[1] = second compound 0.0316 µM, first compound 0.0316 µM
[2] = second compound 0.0316 µM, first compound 0.1 µM
[3] = second compound 0.0316 µM, first compound 0.316 µM
[4] = second compound 0.0316 µM, first compound 1 µM
[5] = second compound 0.0316 µM, first compound 3.16 µM
[6] = second compound 0.0316 µM, first compound 10 µM
[7] = second compound 0.1 µM, first compound 0.0316 µM
[8] = second compound 0.1 µM, first compound 0.1 µM
[9] = second compound 0.1 µM, first compound 0.316 µM
[10] = second compound 0.1 µM, first compound 1 µM
[11] = second compound 0.1 µM, first compound 3.16 µM
[12] = second compound 0.1 µM, first compound 10 µM
[13] = second compound 0.316 µM, first compound 0.0316 µM
[14] = second compound 0.316 µM, first compound 0.1 µM
[15] = second compound 0.316 µM, first compound 0.316 µM
[16] = second compound 0.316 µM, first compound 1 µM
[17] = second compound 0.316 µM, first compound 3.16 µM
[18] = second compound 0.316 µM, first compound 10 µM
[19] = second compound 1 µM, first compound 0.0316 µM
[20] = second compound 1 µM, first compound 0.1 µM
[21] = second compound 1 µM, first compound 0.316 µM
[22] = second compound 1 µM, first compound 1 µM
[23] = second compound 1 µM, first compound 3.16 µM
[24] = second compound 1 µM, first compound 10 µM
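Note: spheroids exposed to agents for seven days before the viability read.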

With CC1(C)CCC(Nc2ncc(C(F)(F)F)c(-c3c[nH]c4c(P(C)(C)=O)c(C#N)ccc34)n2)CN1 (centres undefined) + Cc1nc(NC(=O)N2CCCC2C(N)=O)sc1-c1ccnc(C(C)(C)C(F)(F)F)c1 as the compound, how does the IC50 (second compound 0.0316 µM) read?
The IC50 was 3.65 µM.

And the IC50 (second compound 0.1 µM)?
Its IC50 is 3.77 µM.

And the IC50 (second compound 0.316 µM)?
The IC50 was 3.66 µM.

And the IC50 (second compound 1 µM)?
The IC50 was 3.35 µM.

What about the IC50 (second compound 3.16 µM) of the same compound?
Its IC50 is 1.1 µM.

And the IC50 (second compound 10 µM)?
Its IC50 is 0.185 µM.

What about the viability, T/C [1] of the same compound?
Its viability, T/C is 50.7%.

And the viability, T/C [2]?
Its viability, T/C is 54.1%.

And the viability, T/C [3]?
Its viability, T/C is 54.7%.

What about the viability, T/C [4] of the same compound?
Its viability, T/C is 56.1%.

And the viability, T/C [5]?
Its viability, T/C is 69.7%.

What about the viability, T/C [6] of the same compound?
Its viability, T/C is 0.38%.

What about the viability, T/C [7] of the same compound?
Its viability, T/C is 64.5%.

What about the viability, T/C [8] of the same compound?
The viability, T/C was 52%.

What about the viability, T/C [9] of the same compound?
The viability, T/C was 59.5%.

What about the viability, T/C [10] of the same compound?
Its viability, T/C is 60%.

And the viability, T/C [11]?
Its viability, T/C is 59.7%.

What about the viability, T/C [12] of the same compound?
The viability, T/C was 0.38%.

And the viability, T/C [13]?
Its viability, T/C is 51.8%.

What about the viability, T/C [14] of the same compound?
Its viability, T/C is 57.8%.

What about the viability, T/C [15] of the same compound?
Its viability, T/C is 59.7%.

What about the viability, T/C [16] of the same compound?
Its viability, T/C is 52.8%.

What about the viability, T/C [17] of the same compound?
The viability, T/C was 63.6%.

What about the viability, T/C [18] of the same compound?
The viability, T/C was 0.32%.

What about the viability, T/C [19] of the same compound?
Its viability, T/C is 61.9%.

And the viability, T/C [20]?
The viability, T/C was 45.8%.

What about the viability, T/C [21] of the same compound?
The viability, T/C was 53.7%.

What about the viability, T/C [22] of the same compound?
The viability, T/C was 55.8%.

What about the viability, T/C [23] of the same compound?
The viability, T/C was 52.5%.

What about the viability, T/C [24] of the same compound?
Its viability, T/C is 0.18%.

And the viability, T/C (second compound 3.16 µM, first compound 0.0316 µM)?
Its viability, T/C is 53.5%.

And the viability, T/C (second compound 3.16 µM, first compound 0.1 µM)?
Its viability, T/C is 47.5%.

And the viability, T/C (second compound 3.16 µM, first compound 0.316 µM)?
The viability, T/C was 48.3%.

What about the viability, T/C (second compound 3.16 µM, first compound 1 µM) of the same compound?
The viability, T/C was 57.6%.

What about the viability, T/C (second compound 3.16 µM, first compound 3.16 µM) of the same compound?
The viability, T/C was 31.2%.

What about the viability, T/C (second compound 3.16 µM, first compound 10 µM) of the same compound?
Its viability, T/C is 0.39%.

What about the viability, T/C (second compound 10 µM, first compound 0.0316 µM) of the same compound?
The viability, T/C was 61.6%.

And the viability, T/C (second compound 10 µM, first compound 0.1 µM)?
The viability, T/C was 51.4%.

And the viability, T/C (second compound 10 µM, first compound 0.316 µM)?
The viability, T/C was 46.2%.

What about the viability, T/C (second compound 10 µM, first compound 1 µM) of the same compound?
Its viability, T/C is 37.1%.

What about the viability, T/C (second compound 10 µM, first compound 3.16 µM) of the same compound?
Its viability, T/C is 20.2%.

What about the viability, T/C (second compound 10 µM, first compound 10 µM) of the same compound?
Its viability, T/C is 0.89%.

Which IC50 (second compound 0.00316 µM) does the source give for C#Cc1c(F)ccc2cc(O)cc(-c3ncc4c(N5CC6CCC(C5)N6)nc(OCC56CCCN5CC(F)C6)nc4c3F)c12 (centres undefined) + CC(Nc1ccc2c(c1)OCCn1cc(N3C(=O)OCC3C(F)F)nc1-2)C(N)=O here?
Its IC50 is > 10 µM.

What about the IC50 (second compound 0.01 µM) of the same compound?
Its IC50 is > 10 µM.

And the IC50 (second compound 0.0316 µM)?
The IC50 was > 10 µM.

What about the IC50 (second compound 0.1 µM) of the same compound?
Its IC50 is > 10 µM.

And the IC50 (second compound 0.316 µM)?
The IC50 was 6.86 µM.

What about the IC50 (second compound 1 µM) of the same compound?
The IC50 was 7.1 µM.

And the viability, T/C (second compound 0.00316 µM, first compound 0.0316 µM)?
Its viability, T/C is 102%.

And the viability, T/C (second compound 0.00316 µM, first compound 0.1 µM)?
The viability, T/C was 79.6%.

And the viability, T/C (second compound 0.00316 µM, first compound 0.316 µM)?
Its viability, T/C is 111%.

What about the viability, T/C (second compound 0.00316 µM, first compound 1 µM) of the same compound?
Its viability, T/C is 100%.

What about the viability, T/C (second compound 0.00316 µM, first compound 3.16 µM) of the same compound?
The viability, T/C was 90.5%.

And the viability, T/C (second compound 0.00316 µM, first compound 10 µM)?
The viability, T/C was 74.6%.

And the viability, T/C (second compound 0.01 µM, first compound 0.0316 µM)?
Its viability, T/C is 90%.

And the viability, T/C (second compound 0.01 µM, first compound 0.1 µM)?
Its viability, T/C is 94%.

And the viability, T/C (second compound 0.01 µM, first compound 0.316 µM)?
Its viability, T/C is 102%.

What about the viability, T/C (second compound 0.01 µM, first compound 1 µM) of the same compound?
Its viability, T/C is 95.7%.

What about the viability, T/C (second compound 0.01 µM, first compound 3.16 µM) of the same compound?
Its viability, T/C is 98.2%.

What about the viability, T/C (second compound 0.01 µM, first compound 10 µM) of the same compound?
The viability, T/C was 62.2%.

What about the viability, T/C [1] of the same compound?
Its viability, T/C is 96%.

What about the viability, T/C [2] of the same compound?
The viability, T/C was 95.4%.

What about the viability, T/C [3] of the same compound?
Its viability, T/C is 106%.

What about the viability, T/C [4] of the same compound?
The viability, T/C was 99.7%.

What about the viability, T/C [5] of the same compound?
The viability, T/C was 81.8%.

What about the viability, T/C [6] of the same compound?
The viability, T/C was 62.6%.

What about the viability, T/C [7] of the same compound?
Its viability, T/C is 101%.

And the viability, T/C [8]?
The viability, T/C was 100%.

What about the viability, T/C [9] of the same compound?
Its viability, T/C is 101%.

What about the viability, T/C [10] of the same compound?
Its viability, T/C is 83.1%.

What about the viability, T/C [11] of the same compound?
Its viability, T/C is 79.7%.

What about the viability, T/C [12] of the same compound?
Its viability, T/C is 52.8%.

And the viability, T/C [13]?
The viability, T/C was 100%.

What about the viability, T/C [14] of the same compound?
The viability, T/C was 96.5%.

What about the viability, T/C [15] of the same compound?
Its viability, T/C is 95.9%.

What about the viability, T/C [16] of the same compound?
The viability, T/C was 87.2%.

What about the viability, T/C [17] of the same compound?
Its viability, T/C is 71.4%.

What about the viability, T/C [18] of the same compound?
Its viability, T/C is 39.5%.

What about the viability, T/C [19] of the same compound?
The viability, T/C was 95.3%.

And the viability, T/C [20]?
Its viability, T/C is 84.2%.

And the viability, T/C [21]?
Its viability, T/C is 90.1%.

And the viability, T/C [22]?
Its viability, T/C is 86.9%.

What about the viability, T/C [23] of the same compound?
Its viability, T/C is 67.5%.

What about the viability, T/C [24] of the same compound?
The viability, T/C was 42.6%.
